# Data reported in patent US11731946B2, “Broad spectrum antivirulence, anti-persistence compounds” (priority 2017, dated 2023).
# Values joined by “and” are separate entries in the source; they are usually repeats but may differ in a detail not shown here. Identical values can stand only once.
# Assays:
# [1] = tested on: PA14; test: Antibiotic tolerance/persister (AT/P) cell formation, meropenem, CFU plating; format: cell-based, P. aeruginosa; details: 50 μM compound
# Description: Wild type (PA14) P. aeruginosa was grown in liquid culture with or without Compound 54 and treated with meropenem according to published procedures (see e.g., Starkey et al, PLoS Pathog. 2014, 10:e1004321). Data are expressed as fraction of original culture surviving antibiotic treatment.
# AT/P efficacy of compounds using CFU plating was assessed by growning over-night, cultures diluted 1:100 in triplicate in fresh LB medium in the presence or absence of inhibitor, and re-grown to an OD600 of 2.0 while shaking under aeration at 37° C. Before the antibiotic treatment, aliquots were plated to obtain reference colony counts. […] At 24-h and 48-h time points, the number of surviving bacteria were assessed by plating. The survival fraction of AT/P cells was calculated by dividing the number of surviving bacteria by the number of live bacteria that were present before the antibiotic treatment (reference datum) and expressed as a mean (±SD) of at least three replicate experiments. Using the same CFU plating assay, the efficacy of all compounds identified will be tested against additional antibiotic classes: b-lactams (ceftazidime, cefepime and imipenem), quinolones (ciprofloxacin, moxifloxacin, and levofloxacin), and aminoglycosides (gentamicin and tobramycicn).
# [2] = tested on: Caco2 intestinal epithelial cells; test: Survival of Caco2 cells after compound exposure; format: cell-based; details: 25 μM, 3 hours exposure
# [3] = tested on: MvfR regulon; test: pqsA gene expression (pqsA-GFP reporter); format: cell-based, P. aeruginosa; details: Pseudomonas aeruginosa
# [4] = tested on: MvfR regulon; test: Quantification of pyocyanin (OD520nm of chloroform-extracted cultures); format: cell-based, P. aeruginosa; details: Pseudomonas aeruginosa
# [5] = tested on: MvfR regulon; test: LC/MS quantification of HAQs and related molecules in bacterial culture supernatants; format: cell-based, P. aeruginosa; details: for IC50 / activity at 50 µM: Pseudomonas aeruginosa
# [6] = target: T1, MvfR (Pseudomonas aeruginosa, UniProt Q9I4X0); test: Surface plasmon resonance (SPR) binding to purified MvfR co-inducer binding domain; parameters: species or system P. aeruginosa
# T1 construct: made in house
# Procedure, shortened: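 The recombinant His-purified MvfR co-inducer binding domain was amine-coupled to the sensor chip at a target level of 5000 RU. Compound binding measured by SPR; KD taken from steady-state analysis.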
# T1 sequence (Q9I4X0 91-332): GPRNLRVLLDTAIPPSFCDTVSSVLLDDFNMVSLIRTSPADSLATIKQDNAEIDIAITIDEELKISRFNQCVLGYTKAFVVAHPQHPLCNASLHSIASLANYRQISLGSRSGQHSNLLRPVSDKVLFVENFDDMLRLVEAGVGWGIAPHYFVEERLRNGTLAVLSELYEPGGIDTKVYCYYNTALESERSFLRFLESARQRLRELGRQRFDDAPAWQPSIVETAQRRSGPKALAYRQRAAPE
structure (smiles),measurement,setting,value
N#Cc1ccc(NC(=O)CC(=O)Nc2ccc(Br)cc2)cc1 [Compound 54],inhibition of persistence,[1],inhibit persistence
same,toxicity to Caco2 (survival),[2],not toxic
same,IC50,[3]; read-out: IC50 pqsA (μM),1.28 µM
same,activity at 10 µM,"[3]; read-out: pqsA @10 uM (%), compound at 10 uM",8.8%
same,activity at 50 µM,"[3]; read-out: pqsA @50 uM (%), compound at 50 uM",7.93%
same,IC50,[4]; read-out: IC50 pyocyanin (μM),1.8 µM
same,activity at 1 µM,"[4]; read-out: pyocyanin @1 uM (%), compound at 1 uM",60.8%
same,activity at 10 µM,"[4]; read-out: pyocyanin @10 uM (%), compound at 10 uM",5.9%
same,activity at 50 µM,"[4]; read-out: pyocyanin @50 uM (%), compound at 50 uM",5.7%
same,IC50,"[5]; PA14, read-out: IC50 2-AA (μM)",4.7 µM
same,IC50,"[5]; PA14, read-out: IC50 DHQ (μM)",10.1 µM
same,IC50,"[5]; PA14, read-out: IC50 HHQ (μM)",11.2 µM
same,IC50,"[5]; PA14, read-out: IC50 PQS (μM)",7.8 µM
same,activity at 50 µM,[5]; read-out: 2-AA @50 uM,5.63%
same,activity at 50 µM,[5]; read-out: AA @50 uM,701%
same,activity at 50 µM,[5]; read-out: DHQ @50 uM,10.6%
same,activity at 50 µM,[5]; read-out: HHQ @50 uM (%),1.76%
same,activity at 50 µM,[5]; read-out: HQNO @50 uM (%),12.5%
same,IC50,[5]; read-out: IC50 AA (increase; μM),11.3 µM
same,IC50,[5]; read-out: IC50 HQNO (μM),8.7 µM
same,activity at 50 µM,[5]; read-out: PQS @50 uM (%),7.4%
same,reduction of hydroxy-2-alkylquinoline (HAQ) and 2-AA production,[5]; liquid culture grown with 50 µM Compound 54 (FIG. 1C),5 to 10 fold
same,binding to MvfR (in words),[6]; FIG. 1B,high affinity
same,Signal Intensity Rmax,[6]; SPR,28.21
same,binding intensity relative to parent Compound 1,[6]; SPR,40 times
same,Kd,"[6]; Steady State Binding Affinity KD (μM), SPR, steady state",0.275 µM
same,Kd,"[6]; Steady State Binding Affinity KD [M], SPR, steady state",0.275 µM
same,Kd,"[6]; mean KD value, SPR, mean over the compounds named",~0.25 µM and 0.25 µM
